# Test results as given in ChEMBL document CHEMBL3046519, “Synthesis and biological evaluation of some pyrazole derivatives as anti-inflammatoryantibacterial agents” (2012).
# Legend:
# [1] = system: Bacillus subtilis; test: Antibacterial activity against Bacillus subtilis MTCC 121 at 4 mg/ml after 24 hr by agar well diffusion method; type: functional; settings: MTCC 121, 24 h, read-out: DIZ
# [2] = system: Staphylococcus aureus; test: Antibacterial activity against Staphylococcus aureus MTCC 96 by NCCLS broth macrodilution method; type: functional
# [3] = system: Bacillus subtilis; test: Antibacterial activity against Bacillus subtilis MTCC 121 by NCCLS broth macrodilution method; type: functional
# [4] = system: Pseudomonas aeruginosa; test: microbe, parasite or virus in culture; settings: MTCC 741, 24 h, read-out: DIZ
# [5] = system: Staphylococcus aureus; test: Antibacterial activity against Staphylococcus aureus MTCC 96 at 4 mg/ml after 24 hr by agar well diffusion method; type: functional; settings: MTCC 96, 24 h, read-out: DIZ
# [6] = system: Rattus norvegicus; test: Anti-inflammatory activity in Rattus norvegicus Wistar albino (rat) assessed as inhibition of carrageenan-induced paw edema at 10 mg/kg, ip administered for 30 min prior to carrageenan challenge measured at 4 hr relative to control; type: functional; settings: route intraperitoneal
# [7] = organism: Rattus norvegicus; test: animal or person; settings: Wistar albino, ip, read-out: INH
# [8] = organism: Rattus norvegicus; test: animal or person; settings: Wistar albino, ip, read-out: INH; remark: listed apart in the source
# [9] = system: Rattus norvegicus; test: Anti-inflammatory activity in Rattus norvegicus Wistar albino (rat) assessed as inhibition of carrageenan-induced paw edema at 10 mg/kg, ip administered for 30 min prior to carrageenan challenge measured at 3 hr relative to control; type: functional; settings: route intraperitoneal
Structure (SMILES),zone of inhibition at 4000 µg/mL [1],MIC [2],MIC [3],zone of inhibition at 4000 µg/mL [4],zone of inhibition at 4000 µg/mL [5],inhibition in vivo at 10 mg/kg [6],inhibition in vivo at 10 mg/kg [7],inhibition in vivo at 10 mg/kg [8],inhibition in vivo at 10 mg/kg [9]
O=C(O)c1cn(C2CC2)c2cc(N3CCNCC3)c(F)cc2c1=O [CIPROFLOXACIN],25.6 mm,5 µg/mL,5 µg/mL,23.3 mm,26.3 mm,,,,
COc1ccc2c(c1)c(CC(=O)O)c(C)n2C(=O)c1ccc(Cl)cc1 [INDOMETHACIN],,,,,,78%,41%,79%,78%
